{
  "source": "patent US10716778B2",
  "about": "“Use of compounds that are able to increase the serum IGF-1 level for the preparation of a therapeutical composition for treatment of various disease states associated with a reduced IGF-1 serum level in humans and animals” (VEIJLEN N.V., priority 2003, dated 2020)",
  "key": {"type 2 diabetic patients": {"test_system": "type 2 diabetic patients", "assay": "Well-being of type 2 diabetic patients after treatment (Example 4)", "type": "in vivo, human", "details": "type 2 diabetes patients", "source_text": "(§1) Five male type 2 diabetic patients took part in the study. They were all very difficult to regulate. When the study started, the average HbA1c was to be approximately 9.0%. The patients had no other clinical problems. In addition, the IgF-BP3/IgF-1 ratio had to be over 10. The age of the subjects were between 45 years and 75 years with an average of 58. The period of the investigation was 6 months. At the start of the study, after 2 month, 4 months and at the end at 6 months, blood was taken. The following parameters were checked: IGF-1 and IGF-PB-3. Also, at the start, safety parameters (liver tests, hematology) were determined. Every 8 weeks, HbA1c was determined."}, "IGF-BP3": {"test_system": "IGF-BP3", "assay": "Plasma IGF-BP3 level in eight CFS patients treated with the composition (Example 1)", "type": "in vivo, human", "procedure": "Eight patients suffering from severe chronic fatigue syndrome (CFS) were studied over a 5- to 7-month period. In this period, they were treated with a therapeutical composition of the disclosure in the form of a food supplement, which comprised IAA as the active ingredient. All subjects were unable to do their job or to perform very light physical exercise.\nBefore entering the study, the subjects underwent a careful medical examination to exclude any other disease. Blood was assayed for insulin-like growth factor 1 (IGF-1) and its major binding protein IGF-BP3 was sampled at 0, 1, 3 and 5 to 7 months of treatment because the total amount of IGF-1 in serum minus the amount of IGF-BP3 is the amount of free IGF-1. Free IGF-1 is the active serum fraction. Also at 0, 1, 3 and 5 to 7 months, job participation and physical activities were registered and calculated as percentage of normal, before disease pattern.\nEight women varying in age from 25 to 53 years having severe complaints of fatigue that made it impossible to function normally, both at work and in free time. All reported an excessive need for sleep, which was never refreshing even though it was prolonged (more than 12 hours). After excluding all other diseases and infections, they were all diagnosed for CFS.\nBlood samples of 20 ml were taken and liver and kidney functions, the red and white hemogram, IGF-1 and IGF-BP3 determined. The patients took 1000 mg/day (corresponding to 40 mg IAA and 960 mg salt and WPC 70) of the composition of the disclosure for 4 weeks. After this, the dosage was reduced by 250 mg (corresponding to 10 mg IAA) every 2 weeks to 750 mg/day, 500 mg/day 250 mg/day, respectively. […]\nAt the start of the study and at each check-up point, the work participation and physical activity pattern were scored on a scale from 1 to 10 and plotted as the percentage of the patient's normal activities. […] IGF-BP3 was determined by means of an immunoassay (DSL-5600 ACTIVE™, DSL Deutschland GmbH, Germany) having an intra-assay variance of 4.4% and an inter-assay variance of 6.6%. […]"}, "[1]": {"test_system": "piglets that had a history of PRRSV", "assay": "Health condition of problem piglets (group P) with history of PRRSV treated with IAA (Example 9)", "type": "in vivo, Belgian Land Race piglets", "details": "after ten days of treatment", "procedure": "The piglets were weaned at four weeks and relocated, twelve piglets per pen. IGF-1 levels from three different groups were tested at the age of five weeks.\nThese are the pigs with the big problems. They are looking poor, have a low weight, bad color and some of them have Staphylococcus infections. It was the firm belief of the farmer and the veterinarian that these piglets would not reach the end of the fattening cycle. Blood samples were taken at random from five of the twelve piglets.\nAfter seeing the low IGF-1 levels in group P, it was decided to give them the same treatment as in humans with CFS. The average weight of the piglets would have been around seven kilos at five weeks of age. They were treated with 125 mg of the composition comprising 5 mg IAA and 120 mg NaCl and WPC 70 for ten days. The product was fed in a trough, mixed in liquid feed. All the piglets ate from the same trough."}, "poor-growing piglets": {"test_system": "poor-growing piglets", "assay": "Weight gain and appearance of poor-growing piglets treated with IAA (Example 7)", "type": "in vivo, piglets (Dutch Landrace)", "source_text": "(§2) The trial was done in a well-managed farm with 1000 sows of the Dutch Landrace. Although the farm is well run, the technical performance is not optimal. There were latent problems with mortality and with growth rates of the piglets. There are too many poor-growing piglets, without fully understanding the technical or veterinary reason. There is no clear pathology to be seen on the farm.\n(§3) The farmer selected the poor-growing piglets for this weaning period. The piglets were weaned for two days at the start of the trial. There were three groups: the normal well-growing piglets, which served as a control group; the B group with 78 poor growers that are treated with 12.5 mg/kg/LW (Life Weight) IAA; and the X group with 52 poor growers that are not treated.\n(§4) Blood samples for IGF-1 measuring were taken from each group at the beginning of the trial and at the end of the trial. Two pens (13 piglets) of the B and X groups were weighed at the beginning and at the end of the trial. The active ingredient IAA was mixed in dextrose. […] The B group received the treatment five days after the first IGF-1 measuring."}, "HbA1c": {"test_system": "HbA1c", "assay": "HbA1c in type 2 diabetic patients during medication with IAA (Example 4)", "type": "in vivo, human", "details": "for HbA1c: acetic acid", "source_text": "as §1\nAll samples from one subject were analyzed in the same run to avoid intra-assay variability. Quantification of IGF-1 was performed using an immunoradiometric assay (IRMA) (DSL-5600 ACTIVE™, DSL, Germany GmbH, Germany). Intra- and inter-assay variance was: 4.0% and 9.2% and 1.5% for IGF-1. The Hba1c was analyzed on HPLC Menarine HA 81-60.\nThe total work output of every subject was calculated with a 2-way ANOVA for repeated measures and the hormone values were analyzed with the Wilcoxon test. In all cases, a p value of <0.05 was accepted as significant."}, "IGF-1": {"test_system": "IGF-1", "assay": "IGF-1 levels in poor-growing piglets treated with IAA (Example 7)", "type": "in vivo, piglets (Dutch Landrace)", "source_text": "as §2, §3, §4"}},
  "note": "Several values for one entry are separate records, joined by “and”; a condition that tells them apart may be missing. Equal entries are not always repeated.",
  "data": [
    {"substance": "indole acetic acid [IAA]", "values": [
      {"measurement": "how the patients felt after the treatment", "setting": "type 2 diabetic patients", "result": "felt better"},
      {"measurement": "IGF-BP3 level (mean±SD)", "setting": "IGF-BP3; after 1 month of treatment", "result": "18.1 ± 3.5", "unit": "nmol/L"},
      {"measurement": "IGF-BP3 level (mean±SD)", "setting": "IGF-BP3; after 5 months of treatment", "result": "13.4 ± 10.6", "unit": "nmol/L"},
      {"measurement": "IGF-BP3 level (mean±SD)", "setting": "IGF-BP3; before treatment (baseline)", "result": "25 ± 11.5", "unit": "nmol/L"},
      {"measurement": "Staphylococcus infection", "setting": "[1]", "result": "no piglets suffered from Staphylococcus infection anymore"},
      {"measurement": "condition of the piglets", "setting": "[1]", "result": "dramatically improved"},
      {"measurement": "survival", "setting": "[1]", "result": "All twelve pigs were still alive"},
      {"measurement": "appearance of piglets in group B versus group X", "setting": "poor-growing piglets; after one week", "result": "looking better"},
      {"measurement": "weight of poor-growing animals", "setting": "poor-growing piglets; animal experiments, summary", "result": "increased to normal levels"},
      {"measurement": "average extra weight gain of treated group over non-treated", "setting": "poor-growing piglets; pens that were weighed, period of 21 days", "result": "~0.5", "unit": "kg"},
      {"measurement": "av. Weight gain", "setting": "poor-growing piglets; treated pens of group B, 21 days, acetic acid", "result": "7.02 kg and 6.08 kg"},
      {"measurement": "Weighing 1 average", "setting": "poor-growing piglets; treated pens of group B, beginning of the trial, average per piglet, acetic acid", "result": "6.62 kg and 6.77 kg"},
      {"measurement": "Weighing 1 Total", "setting": "poor-growing piglets; treated pens of group B, beginning of the trial, total per pen, acetic acid", "result": "86 (n = 13) kg and 88 (n = 13) kg"},
      {"measurement": "Weighing 2 average", "setting": "poor-growing piglets; treated pens of group B, end of the trial, average per piglet, acetic acid", "result": "13.64 kg and 12.85 kg"},
      {"measurement": "Weighing 2 Total", "setting": "poor-growing piglets; treated pens of group B, end of the trial, total per pen, acetic acid", "result": "150 (n = 11) kg and 167 (n = 13) kg"},
      {"measurement": "average extra growth of pen B 3 L(eft) over neighbors from pen X 4 L(eft)", "setting": "poor-growing piglets; treated vs non-treated pen", "result": 850, "unit": "grams"},
      {"measurement": "HbA1c, average", "setting": "HbA1c; Week 0 (start), average of 5 subjects", "result": 9.0, "unit": "%"},
      {"measurement": "HbA1c", "setting": "HbA1c; Week 0 (start), individual subjects", "result": "9.6% and 9.0% and 9.1% and 8.6% and 8.8%"},
      {"measurement": "HbA1c, average", "setting": "HbA1c; Week 8, average of 5 subjects", "result": 8.3, "unit": "%"},
      {"measurement": "HbA1c", "setting": "HbA1c; Week 8, individual subjects", "result": "8.9% and 8.2% and 8.3% (2×) and 7.6%"},
      {"measurement": "HbA1c, average", "setting": "HbA1c; Week 16, average of 5 subjects", "result": 7.4, "unit": "%"},
      {"measurement": "HbA1c", "setting": "HbA1c; Week 16, individual subjects", "result": "8.0% and 7.1% and 7.4% and 6.9% and 7.6%"},
      {"measurement": "HbA1c, average", "setting": "HbA1c; Week 24, average of 5 subjects", "result": 6.7, "unit": "%"},
      {"measurement": "HbA1c", "setting": "HbA1c; Week 24, individual subjects", "result": "7.4% and 6.4% and 6.6% and 6.3% and 6.8%"},
      {"measurement": "IGF-1 level, 2nd measurement", "setting": "IGF-1; treated group B, individual piglets, after 21 days of 12.5 mg/kg/LW IAA in feed, acetic acid, 12.5 mg/kg", "result": "25.2 nmol/L and 28.9 nmol/L and 25.5 nmol/L and 29.9 nmol/L and 16.9 nmol/L"},
      {"measurement": "IGF-1 level, 1st measurement", "setting": "IGF-1; treated group B, individual piglets, beginning of the trial, before treatment, acetic acid", "result": "3 nmol/L and 2.7 nmol/L and 6.1 nmol/L and 5.3 nmol/L and 5.7 nmol/L"},
      {"measurement": "IGF-1 level, 2nd measurement, average", "setting": "IGF-1; treated group B, average of 5 piglets, after 21 days of treatment, control 23.6, non-treated X 17.2, acetic acid", "result": "25.3 nmol/L and 25.28 nmol/L"},
      {"measurement": "IGF-1 level, 1st measurement, average", "setting": "IGF-1; treated group B, average of 5 piglets, before treatment", "result": 4.56, "unit": "nmol/L"},
      {"measurement": "effect on IGF-1 levels in poor-growing piglets", "setting": "IGF-1; treatment for 14-21 days with 12.5 mg/kg/LW IAA", "result": "effectively restores IGF-1 levels"}
    ]}
  ]
}
